Patent publication US8128962B2, “Liquid compositions containing solubilized benzoyl peroxide, means for applying same and methods of treatment using same” (priority 2007, dated 2012)

Key:
[1] = water and most dermatologically safe solvents; cited from earlier work
[2] = test system: Propionibacterium acnes; settings: versus clindamycin or erythromycin; Leyden 2001; cited from earlier work
[3] = Solubility of BP in solvents; type: physicochemical

## O=C(OOC(=O)c1ccccc1)c1ccccc1 [BP, benzoyl peroxide]
[1]
  Solubility of BP in water: virtually insoluble
[2]
  Effectiveness in killing the bacteria responsible for causing acne: more effective than either clindamycin or erythromycin
[3]
  Solubility of BP in absolute alcohol: poor
